Results on 2 compounds are retold here after ChEMBL document CHEMBL4359841, “Late-Stage Functionalization of Platensimycin Leading to Multiple Analogues with Improved Antibacterial Activity in Vitro and in Vivo” (2019).

In assay [1] the test system is Staphylococcus aureus. Briefly: Inhibition of FabB/FabF in methicillin-resistant Staphylococcus aureus assessed as antibacterial activity at 5 ug/disk after 18 hrs by agar disk diffusion method.
The test system of assay [2] is Staphylococcus aureus. Briefly: Inhibition of FabB/FabF in methicillin-resistant Staphylococcus aureus assessed as antibacterial activity at 2 ug/disk after 18 hrs by agar disk diffusion method.
Assay [3] concerns Staphylococcus aureus. Briefly: Inhibition of FabB/FabF in methicillin-sensitive Staphylococcus aureus assessed as antibacterial activity after 16 hrs by agar dilution method. A general note: In agar dilution the substance is mixed into plates at graded concentrations.
Assay [4] concerns Staphylococcus aureus. Briefly: Inhibition of FabB/FabF in methicillin-resistant Staphylococcus aureus 2968 clinical isolate assessed as antibacterial activity after 16 hrs by agar dilution method.
Assay [5] deals with Staphylococcus aureus. Briefly: Inhibition of FabB/FabF in methicillin-resistant Staphylococcus aureus 2978 clinical isolate assessed as antibacterial activity after 16 hrs by agar dilution method.
The subject of assay [6] is Staphylococcus aureus. As to the kind of experiment: Inhibition of FabB/FabF in methicillin-resistant Staphylococcus aureus 3065 clinical isolate assessed as antibacterial activity after 16 hrs by agar dilution method.
Assay [7] has as its system Staphylococcus aureus. Briefly: Inhibition of FabB/FabF in methicillin-resistant Staphylococcus aureus 3071 clinical isolate assessed as antibacterial activity after 16 hrs by agar dilution method.
Assay [8] has as its system Staphylococcus aureus. As to the kind of experiment: Inhibition of FabB/FabF in methicillin-resistant Staphylococcus aureus 3086 clinical isolate assessed as antibacterial activity after 16 hrs by agar dilution method.
Assay [9] concerns Staphylococcus aureus. Briefly: Inhibition of FabB/FabF in methicillin-resistant Staphylococcus aureus 3105 clinical isolate assessed as antibacterial activity after 16 hrs by agar dilution method.
Assay [10] deals with Staphylococcus aureus. Briefly: Inhibition of FabB/FabF in methicillin-resistant Staphylococcus aureus 3140 clinical isolate assessed as antibacterial activity after 16 hrs by agar dilution method.
The subject of assay [11] is Staphylococcus aureus. As to the kind of experiment: Inhibition of FabB/FabF in methicillin-resistant Staphylococcus aureus 3161 clinical isolate assessed as antibacterial activity after 16 hrs by agar dilution method.
The test system of assay [12] is Staphylococcus aureus. As to the kind of experiment: Inhibition of FabB/FabF in methicillin-resistant Staphylococcus aureus 3188 clinical isolate assessed as antibacterial activity after 16 hrs by agar dilution method.
In assay [13] the test system is Staphylococcus aureus. Briefly: Inhibition of FabB/FabF in methicillin-resistant Staphylococcus aureus 3193 clinical isolate assessed as antibacterial activity after 16 hrs by agar dilution method.
In assay [14] the test system is Staphylococcus aureus. Briefly: Inhibition of FabB/FabF in methicillin-sensitive Staphylococcus aureus 2955 clinical isolate assessed as antibacterial activity after 16 hrs by agar dilution method.
Assay [15] concerns Staphylococcus aureus. As to the kind of experiment: Antibacterial activity against methicillin-resistant Staphylococcus aureus infected in C57BL/6J mouse model of peritonitis assessed as mouse survival at 20 mg/kg, ip dosed at 1 hr and 5 hrs post infection and measured for 7 days relative to control. It is filed as functional.
Assay [16] has as its system Staphylococcus aureus. Briefly: Antibacterial activity against methicillin-resistant Staphylococcus aureus infected in C57BL/6J mouse model of peritonitis assessed as mouse survival at 30 mg/kg, ip dosed at 1 hr and 5 hrs post infection and measured for 7 days relative to control. It is filed as functional.
The subject of assay [17] is Staphylococcus aureus. As to the kind of experiment: Antibacterial activity against methicillin-resistant Staphylococcus aureus infected in C57BL/6J mouse model of peritonitis assessed as mouse survival at 30 to 50 mg/kg, po administered via gavage measured after 2 days. It is filed as functional, organism-based.
Assay [18] has as its system Staphylococcus aureus. Briefly: Antibacterial activity against methicillin-resistant Staphylococcus aureus infected in BALB/c mouse model of skin infection assessed as bacterial load in skin lesions at 2 mg administered topically as ointment twice daily for 7 days and measured at 24 hrs post last dose (7.9 +/- 0.9 x 10^8 CFU/g). It is filed as functional.
Assay [19] deals with Staphylococcus aureus. Briefly: Antibacterial activity against methicillin-resistant Staphylococcus aureus infected in BALB/c mouse model of skin wound assessed as reduction in appearance of secondary scald at 2 mg administered topically as ointment twice daily for 7 days and measured after 24 hrs by visual inspection method. It is filed as functional, organism-based.
Assay [20] concerns Staphylococcus aureus. As to the kind of experiment: Antibacterial activity against methicillin-resistant Staphylococcus aureus infected in BALB/c mouse model of skin wound assessed as reduction in detachment of epidermis from dermis at 2 mg administered topically as ointment twice daily for 7 days and measured after 24 hrs by visual inspection method. It is filed as functional, organism-based.

For assay [21], the system named is Staphylococcus aureus. As to the kind of experiment: Antibacterial activity against methicillin-resistant Staphylococcus aureus infected in BALB/c mouse model of skin wound assessed as retainment of dermis layers at 2 mg administered topically as ointment twice daily for 7 days and measured and after 24 hrs by HE staining analysis. It is filed as functional, organism-based.

Assay [22] concerns Staphylococcus aureus. Briefly: Antibacterial activity against methicillin-resistant Staphylococcus aureus infected in BALB/c mouse model of skin wound assessed as retainment of fat layers at 2 mg administered topically as ointment twice daily for 7 days and measured after 24 hrs by HE staining analysis. Type of assay: functional, organism-based.

SMILES strings stand for the structures. Converted amounts (≈) assume the structure as drawn. The source made the active and inactive calls. Unless noted, the rule behind the calls is not given here.

On to `C[C@]12C[C@@]34C=C(SC5CCCCC5)C(=O)[C@@](C)(CCC(=O)Nc5c(O)ccc(C(=O)O)c5O)[C@@H]3[C@H](C[C@@H]1C4)O2`, for which, in the assay on Staphylococcus aureus [1], the “antibacterial activity (disk diffusion, qualitative)” value is “Active”. Also, the inhibition result in the assay with Staphylococcus aureus [2], with Staphylococcus aureus [4], in the assay on Staphylococcus aureus [5], in the assay on Staphylococcus aureus [6], with Staphylococcus aureus [7] and in the assay with Staphylococcus aureus [8] was “Active” in each case. Besides, the inhibition result in the assay with Staphylococcus aureus [9], in the assay with Staphylococcus aureus [10], with Staphylococcus aureus [11], in the assay on Staphylococcus aureus [12], in the assay on Staphylococcus aureus [13] and in the assay on Staphylococcus aureus [14] was “Active” each time. For the same compound, the MIC in the assay on Staphylococcus aureus [3] was 0.25 µg/mL (≈ 0.45 µM). In the assay on Staphylococcus aureus [15], the survival at 20 mg/kg was 100%. Also, the survival at 30 mg/kg in the assay with Staphylococcus aureus [16] worked out at 80%. Besides, in the assay with Staphylococcus aureus [17], the Survival entry is “inactive”. For the same compound, the Activity with Staphylococcus aureus [18] worked out at 2.7 ×10⁶ CFU/g. The outcome in the assay with Staphylococcus aureus [19], with Staphylococcus aureus [20], with Staphylococcus aureus [21] and in the assay with Staphylococcus aureus [22] was Active.
Turning to `C[C@]12C[C@@]34C=CC(=O)[C@@](C)(CCC(=O)Nc5c(O)ccc(C(=O)O)c5O)[C@@H]3[C@H](C[C@@H]1C4)O2`, in the assay with Staphylococcus aureus [1], the “antibacterial activity (disk diffusion, qualitative)” value was “Active”. In addition, the MIC came to 0.5 µg/mL (≈ 1.13 µM) in the assay on Staphylococcus aureus [3]; 1 µg/mL (≈ 2.27 µM) in the assay with Staphylococcus aureus [4]; 1 µg/mL (≈ 2.27 µM) in the assay with Staphylococcus aureus [5]; 1 µg/mL (≈ 2.27 µM) in the assay with Staphylococcus aureus [6]; 1 µg/mL (≈ 2.27 µM) in the assay on Staphylococcus aureus [7]; 1 µg/mL (≈ 2.27 µM) with Staphylococcus aureus [8]. Besides, the MIC with Staphylococcus aureus [9], in the assay on Staphylococcus aureus [10], with Staphylococcus aureus [11], with Staphylococcus aureus [12], in the assay with Staphylococcus aureus [13] and with Staphylococcus aureus [14] was 1 µg/mL (≈ 2.27 µM) each time.
